Results reported in patent US20110206607A1, “IMIDAZOL (1,2-A)PYRIDINES AND RELATED COMPOUNDS WITH ACTIVITY AT CANNABINOID CB2 RECEPTORS” (priority 2007, published 2011).

Each molecule was assayed against T1, human CB2 (Homo sapiens, UniProt P34972) (assay: CB2 receptor binding assay, block of [3H]-CP 55,940 binding). Settings: membranes of HEK-293T cells transfected with human CB2 cDNA; 1.5 nM [3H]-CP 55,940.
T1 construct: expressed in transfected cells; host or cells: HEK-293T (transient transfection, membrane preparation)
T1 sequence (P34972 whole entry): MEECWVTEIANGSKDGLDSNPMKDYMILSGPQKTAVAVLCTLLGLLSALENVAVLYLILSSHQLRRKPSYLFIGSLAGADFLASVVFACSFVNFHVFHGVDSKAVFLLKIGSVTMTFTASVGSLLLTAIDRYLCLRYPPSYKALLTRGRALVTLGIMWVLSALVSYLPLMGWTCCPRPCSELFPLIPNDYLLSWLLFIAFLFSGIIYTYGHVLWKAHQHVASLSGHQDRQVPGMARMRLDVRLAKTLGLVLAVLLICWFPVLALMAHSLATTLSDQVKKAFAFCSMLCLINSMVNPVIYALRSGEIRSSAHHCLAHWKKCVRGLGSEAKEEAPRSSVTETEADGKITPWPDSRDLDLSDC
Experimental: Membrane preparation—HEK-293T cells were cultured according to ATCC (Manassas, Va.) guidelines and transfected with human CB2 cDNA (SEQ ID NO:1) (Genbank X74328), operably linked to the SV40 promoter, using Polyfect (Qiagen, Valencia, Calif.) or Fugene (Roche, Nutley, N.J.) according to manufacturer's instructions. 48 h after transfection cells were harvested in ice cold membrane buffer (20 mM HEPES, 6 mM MgCl2, 1 mM EDTA, pH 7.2) using a cell scraper. Cells were transferred to a nitrogen cavitation chamber and a pressure of […] was applied for 30 min. The pressure was released and the cell debris was collected and centrifuged at 1000 g at 4° C. for 10 min. The supernatant was collected and the spin was repeated until the supernatant was free of precipitate. Membranes were then pelleted by centrifugation at 12.000 g at 4° C. for 20 min. Membranes were resuspended in an appropriate amount of membrane buffer. The membrane concentration was determined using a BioRad (Hercules, Calif.) protein assay dye reagent according to manufacturer's instructions. Membranes were diluted to 1 mg/ml and aliquots snap-frozen in liquid nitrogen and store at −80° C.
Binding assay—0.5-10 ng of membranes were incubated in binding buffer (50 mM Tris, 0.5 mM EDTA, 0.1% BSA, pH 7.4) in the presence of 1.5 nM radioligand ([^3H]-CP 55,940 Perkin Elmer) and varying concentrations of ligands (total volume 100 μL in a 96 well plate). Membranes were filtered onto a 96 well GF/B filterplate (Packard Bioscience, Shelton, Conn.) and washed with […] wash buffer (25 mM HEPES, 1 mM CaCl2, 5 mM MgCl2, 0.25M NaCl) using a Filtermate 196 Harvester (Packard Instruments, Downers Grove, Ill.). The filter plates were dried under a heat lamp before addition of 50 μL of scintillation fluid to each well (Microscint 20, Packard, Shelton, Conn.). Plates were counted on a Topcount NXT (Packard, Shelton, Conn.).
Data Analysis—Graphs were plotted and KD values were determined by nonlinear regression analysis using Prism software (GraphPad version 4.0, San Diego, Calif., USA).
Work on `COc1cccc2nc(-c3c(Cl)ccc(OCF)c3F)c(Nc3ccc4c(c3)OCCO4)n12` [CR-10] yielded a pKi of 9.2. With `Cc1ccn2c(Nc3ccc4c(c3)OCCO4)c(-c3cccc(F)n3)nc2c1` [CR-99] the pKi was 6.5. For `COc1cccc2nc(-c3c(C)cc(OCCF)cc3C)c(Nc3ccc4c(c3)OCCO4)n12` [CR-21], the pKi was 8.3. For `Cc1cc(O)cc(C)c1-c1nc2ccc(F)cn2c1Nc1ccc2c(c1)OCCO2` [CR-33], the pKi was 7.8. Molecule `Cc1ccn2c(Nc3ccc4c(c3)OCCO4)c(-c3c(F)cccc3Cl)nc2c1` [CR-55] has a pKi of 7.3. Work on `COc1cccc2nc(-c3c(F)cccc3Cl)c(NC(=O)Nc3ccc4c(c3)OCCO4)n12` [CR-109] yielded a pKi of 6.3. In the case of `COc1cccc(OC)c1-c1nc2cc(C)ccn2c1Nc1ccc2c(c1)OCCO2` [CR-126], the pKi is reported as 5.9. In the case of `CCOc1cccc2nc(-c3c(F)cccc3Cl)c(Nc3ccc4c(c3)OCCO4)n12` [CR-24], the pKi is reported as 8.1. Work on `Fc1cccc(Cl)c1-c1nc2ccccn2c1Nc1ccc2c(c1)OCCO2` [CR-38] yielded a pKi of 7.7. For `FCCOc1cncc(F)c1-c1nc2cccc(OCCF)n2c1Nc1ccc2c(c1)OCCO2` [CR-8], the pKi was 6.6. `Fc1cc(-c2nc3cnccn3c2Nc2ccc3c(c2)OCCO3)ccn1` [CR-83] gave a pKi of 5.5. `COc1cccc2nc(-c3c(C)cncc3C)c(Nc3ccc4c(c3)OCCO4)n12` [CR-139] showed a pKi of 8.2. Molecule `COc1cccc2nc(-c3c(F)ccc(OCF)c3Cl)c(Nc3ccc4c(c3)OCCO4)n12` [CR-11] has a pKi of 9.1. For `COc1cccc2nc(-c3c(F)ccc(O)c3F)c(Nc3ccc4c(c3)OCCO4)n12` [CR-4], the pKi was 8.5. `Cc1cccc(C)c1-c1nc2ncccn2c1Nc1ccc2c(c1)OCCO2` [CR-74] was tested, and the pKi was 6.8. Work on `COc1cc(O)ccc1-c1nc2cccc(C)n2c1Nc1ccc2c(c1)OCCO2` [CR-65] yielded a pKi of 6.9. In the case of `Cc1cn2c(Nc3ccc4c(c3)OCCO4)c(-c3c(F)cccc3Cl)nc2cn1` [CR-80], the pKi is reported as 6.7. `Cc1ccc2nc(-c3c(Cl)cccc3[N+](=O)[O-])c(Nc3ccc4c(c3)OCCO4)n2c1` [CR-47] showed a pKi of 7.4. `c1ccc(-c2nc3ncccn3c2Nc2ccc3c(c2)OCCO3)nc1` [CR-115] gave a pKi of 6.2. Molecule `COc1cnc2nc(-c3c(F)cncc3F)c(Nc3ccc4c(c3)OCCO4)n2c1` [CR-137] has a pKi of 6.5. With `COc1cc(-c2nc3ccccn3c2Nc2ccc3c(c2)OCCO3)ccc1O` [CR-71] the pKi was 6.8. Molecule `COc1cccc2nc(-c3c(C)cc(OCC[18F])cc3C)c(Nc3ccc4c(c3)OCCO4)n12` [CR-132] has a Ki of 5.01 nM. With `Cc1cccc2nc(-c3c(F)cccc3Cl)c(Nc3ccc4c(c3)OCCO4)n12` [CR-25] the pKi was 8.0. Work on `Cc1cncc2nc(-c3c(F)cccc3Cl)c(Nc3ccc4c(c3)OCCO4)n12` [CR-58] yielded a pKi of 7.2. Work on `COc1cc(-c2nc3ccc(C)cn3c2Nc2ccc3c(c2)OCCO3)cc(F)c1O` [CR-96] yielded a pKi of 6.5. In the case of `COc1cc(-c2nc3ncccn3c2Nc2ccc3c(c2)OCCO3)ccc1O` [CR-70], the pKi is reported as 6.8. `CCc1cccc2nc(-c3c(F)cccc3Cl)c(Nc3ccc4c(c3)OCCO4)n12` [CR-45] was tested, and the pKi was 7.4. Molecule `COc1ccc2nc(-c3c(F)cccc3Cl)c(Nc3ccc4c(c3)OCCO4)n2c1` [CR-13] has a pKi of 8.7. With `COc1cc(O)ccc1-c1nc2ccc(C)cn2c1Nc1ccc2c(c1)OCCO2` [CR-85] the pKi was 6.7. In the case of `COc1cc(O)ccc1-c1nc2ccccn2c1Nc1ccc2c(c1)OCCO2` [CR-79], the pKi is reported as 6.7. Work on `COc1cc(-c2nc3cccc(C)n3c2Nc2ccc3c(c2)OCCO3)ccc1O` [CR-97] yielded a pKi of 6.5. `Cc1ccc2nc(-c3c(C)cccc3C)c(Nc3ccc4c(c3)OCCO4)n2c1` [CR-49] gave a pKi of 7.3. In the case of `COc1cccc2nc(-c3c(F)ccc(OCF)c3F)c(Nc3ccc4c(c3)OCCO4)n12` [CR-1], the pKi is reported as 9.5. With `Cc1ccn2c(Nc3ccc4c(c3)OCCO4)c(-c3ccc(F)nc3)nc2c1` [CR-54] the pKi was 5.2. With `COc1cc(-c2nc3ccc(Cl)cn3c2Nc2ccc3c(c2)OCCO3)ccc1O` [CR-77] the pKi was 6.7. `COc1cccc2nc(-c3c(C)cc(OCCO)cc3C)c(Nc3ccc4c(c3)OCCO4)n12` [CR-5] was tested, and the pKi was 8.3.
